Test results: patent US9034825B2, “Treatment of myocardial injury with humanin analogs” (Albert Einstein College of Medicine of Yeshiva University, priority 2007, dated 2015)

Experiments:
Sprague-Dawley rats = test: Intravenous infusion of humanin or analogs during hyperinsulinemic clamp; format: in vivo, rat; settings: infused peripherally 0.0375 mg/kg/hr
BP3KO MEFs = test: Apoptosis ELISA in IGFBP3 KO mouse embryonic fibroblasts; format: cell-based; settings: 24 hours, 100 nM of peptides
Procedure: (§1) Mouse embryonic fibroblasts derived from normal and IGFBP3 KO mice were used to test the effects of humanin and its analogues on survival. Apoptosis ELISA was used as an output measure and cells were treated for 24 hours with 100 nM of peptides. […] Thus, the HNGF6A humanin analogue has non-obvious properties that are different from previously described humanin derivatives and has increased potency as a result of its specific molecular alteration leading to reduced IGFBP-3 binding.

IGFBP-3 = IGFBP-3 (Homo sapiens, UniProt P17936); test: Dot blots probed with radiolabeled IGFBP-3; format: binding; settings: FIG. 17A
IGFBP-3, sequence (P17936 28-291): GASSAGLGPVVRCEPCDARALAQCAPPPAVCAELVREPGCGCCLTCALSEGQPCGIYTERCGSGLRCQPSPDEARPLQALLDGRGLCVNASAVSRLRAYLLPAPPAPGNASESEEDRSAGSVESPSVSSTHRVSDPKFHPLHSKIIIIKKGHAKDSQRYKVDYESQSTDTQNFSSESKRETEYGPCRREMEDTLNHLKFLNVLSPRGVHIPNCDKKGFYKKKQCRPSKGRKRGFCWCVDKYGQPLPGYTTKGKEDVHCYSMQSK
Procedure: For acute signaling studies, rats were injected ICV with either aCSF, 20 μg of HN or F6A (dissolved in aCSF) over 5 min, and sacrificed 30 min later. Tissue sample were obtained from mediobasal hypothalamus, liver and muscle. Samples were also obtained from these tissues at the end of the clamp and western blot analysis was performed as described previously (Muzumdar et al. 2003) The blots were scanned using the LI-COR Odyssey (LI-COR, Lincoln, Nebr., USA) and quantified using Odyssey 2.0 software based on direct fluorescence measurement. Dot blots were performed by blotting 50 ng of humanin, HN-analogues, and IGF on nitrocellulose, incubating with 125-I-labeled-IGFBP-3, autoradiography and scanning.

normal MEFs = test: Apoptosis ELISA in normal mouse embryonic fibroblasts; format: cell-based; settings: 24 hours, 100 nM of peptides
Procedure: as §1

NONcNZO10/LtJ mice = test: IP glucose tolerance test in NONcNZO10/LtJ mice; format: in vivo, mouse; settings: IP 25 microgram twice a day for 14 days; IP GTT on D15
Procedure: NONcNZO10/LtJ mice were injected IP with HNGF6A 25 microgram twice a day for 14 days. Mice were subjected to 6 hour fast followed by IP GTT on D15. Baseline glucose measurement was taken and the mice were injected IP with 0.5 mg/g glucose. Glucose was sampled at 0 and 90, 120 min.

[1] = test system: mice, myocardial ischemia-reperfusion (I/R) injury; test: Murine myocardial ischemia-reperfusion injury; format: in vivo, mouse
Procedure: The cardioprotective effects of a single-dose of humanin analog HNG treatment were investigated in a murine model of myocardial ischemia-reperfusion (I/R) injury. Mice were subjected to transient myocardial ischemia for a period of 45 min followed by 24 hour reperfusion. HNG (1, 5, 10, 25, 50 and 200 microgram) or vehicle (saline) was administered intraperitoneally one hour before ischemia.

[2] = test system: memory impairment caused by AD-related insults; settings: literature (Tajima et al., 2005); cited from earlier work

Substance | glucose infusion rates during clamp (Sprague-Dawley rats) | hepatic glucose production (Sprague-Dawley rats; clamp) | peripheral glucose uptake (Sprague-Dawley rats; clamp) | potency on survival (Apoptosis ELISA) (BP3KO MEFs) | ability to bind IGFBP-3 (IGFBP-3) | potency on survival (Apoptosis ELISA) (normal MEFs) | glucose levels at 90 and 120 min (NONcNZO10/LtJ mice) | glucose tolerance (NONcNZO10/LtJ mice) | myocardial injury ([1]; single dose IP one hour before 45 min ischemia, 24 hour reperfusion) | doses at which reduced myocardial infarct was observed ([1]; single dose IP one hour before ischemia, 1-200 microgram tested) | potency relative to native HN in rescue activity against AD-related insults in vivo [2]
MAPRGASCLLLLTGEIDLPVKRRA (Humanin analog HNGF6A) [HN with alanine at 6th amino acid] | significantly higher | suppressive effects | significant increase | equal potency | completely devoid of the ability to bind IGFBP-3 | more potent | significantly lower | significantly better glucose tolerance | – | – | –
maprgfscll lltgeidlpv krra (MAPRGFSCLLLLTGEIDLPVKRRA; Humanin analog S14G (HNG)) [humanin analogue in which serine at position 14 is replaced by glycine] | – | – | – | equal potency | – | – | – | – | decreased myocardial injury | ≥ 5 µg | 1000 times
